Data reported in patent publication US20230028680A1, “EXPANSION OF NATURAL KILLER CELLS AND ILC3 CELLS WITH NOVEL AROMATIC COMPOUNDS” (Celularity Inc., priority 2018, published 2023).
“Also recorded” adds a separate entry of the source.

Experiments:
Format in all cases: cell-based, human
NK cells [1] = experiment: NK cell expansion from CD34+ cells in three-stage NK culture, compound present for the first 14 days; conditions: for support of NK cell expansion (and differentiation), in words: compound at 10 μM during first 14 days of culture; for support of NK cell expansion (and differentiation), in words / level of expansion compared to SR1 at Day 35: Day 35; for level of expansion compared to SR1 at Day 35 / expansion, differentiation and cytotoxicity profiles compared to SR1: compound at 10 μM; for level of expansion compared to SR1 at Day 35: SR1 at 10 μM as positive control; for expansion, differentiation and cytotoxicity profiles compared to SR1: PNK-007 culture
Protocol: (§1) CD34^+ cells are cultured in the following medium formulations for the indicated number of days, and aliquots of cells are taken for assessment of cell count, cell viability, characterization of natural killer cell differentiation and functional evaluation.
(§2) Stage 1 medium: 90% Stem Cell Growth Medium (SCGM) (CellGro®), 10% Human Serum-AB, supplemented with 25 ng/mL or 250 ng/mL recombinant human thrombopoietin (TPO), 25 ng/mL recombinant human Flt3L, 27 ng/mL recombinant human stem cell factor (SCF), 25 ng/mL recombinant human IL-7, 0.05 ng/mL or 0.025 ng/mL recombinant human IL-6, 0.25 ng/mL or 0.125 ng/mL recombinant human granulocyte colony-stimulating factor (G-CSF), 0.01 ng/mL or 0.025 ng/mL recombinant human granulocyte-macrophage colony-stimulating factor (GM-CSF), 0.10% gentamicin, and 1 to 10 μm StemRegenin-1 (SR-1) or other stem cell mobilizing agent.
(§3) Stage 2 medium: 90% SCGM, 10% Human Serum-AB, supplemented with 25 ng/mL recombinant human Flt3L, 27 ng/mL recombinant human SCF, 25 ng/mL recombinant human IL-7, 20 ng/mL recombinant human IL-15, 0.05 ng/mL or 0.025 ng/mL recombinant human IL-6, 0.25 ng/mL or 0.125 ng/mL recombinant human granulocyte colony-stimulating factor (G-CSF), 0.01 ng/mL or 0.025 ng/mL recombinant human granulocyte-macrophage colony-stimulating factor (GM-CSF), 0.10% gentamicin, and 1 to […] SR1 or other stem cell mobilizing agent.
Stage 3 medium: 90% STEMMACS′, 10% Human Serum-AB, 0.025 mM 2-mercaptoethanol (55 mM), supplemented with 22 ng/mL recombinant human SCF, 1000 U/mL recombinant human IL-2, 20 ng/mL recombinant human IL-7, 20 ng/mL recombinant human IL-15, 0.05 ng/mL or 0.025 ng/mL recombinant human IL-6, 0.25 ng/mL or 0.125 ng/mL recombinant human granulocyte colony-stimulating factor (G-CSF), 0.01 ng/mL or 0.025 ng/mL recombinant human granulocyte-macrophage colony-stimulating factor (GM-CSF), and 0.10% gentamicin.
(§4) Cells are seeded at Day 0 at 3×10^4 cells/mL in Stage 1 media, and cells are tested for purity by a CD34+ and CD45+ count and viability by 7AAD staining. At Day 5 cells are counted and seeded to a concentration of 1×10^5 cells/mL with Stage 1 medium. At Day 7 cells are counted and seeded to a concentration of 1×10^5 cells/mL with Stage 1 medium.
(§5) At Day 10, cells are counted and seeded to a concentration of 1×10^5 cells/mL in Stage 2 medium. At Day 12, cells are counted and seeded to a concentration of 3×10^5 cells/mL in Stage 2 medium. At Day 14, cells are counted and seeded in Stage 3 medium. Cells are maintained in Stage 3 media until day 35.
(§6) UCB CD34+ cells were cultivated in presence of cytokines including thrombopoietin, SCF, Flt3 ligand, IL-7, IL-15 and IL-2 for 35 days to produce three-stage NK cells, as described in Example 1. Multi-color flow cytometry was used to determine the phenotypic characteristics of three-stage NK cells.
(§7) For biological testing, the compounds were provided to culture to evaluate their effects on NK cell expansion and differentiation. Specifically, donors of CD34+ cells (StemCell Technology) were thawed and expanded in vitro following NK culture protocol. During the first 14 days of the culture, each CRL compounds was dissolved in DMSO and added to the culture at 10 μM concentration. SR1 (at 10 μM) served as a positive control compound, while DMSO alone without any compound served as a negative control. At the end of the culture on Day 35, cell expansion, natural killer (NK) cell differentiation and cytotoxicity of the cells against K562 tumor cell line were characterized. Due to the large number of the compounds, the testing was performed in two experiments, CRL1-11 and CRL 12-22. The same donors were used for each experiment. Positive and negative controls were also included in both experiments.

NK cells [2] = experiment: NK cell differentiation at Day 35 by multi-color flow cytometry; conditions: PNK-007 culture, compound at 10 μM
Excerpt: as §6, §7

K562 tumor cells = experiment: Cytotoxicity assay of compound cultured cells against K562 tumor cells; conditions: 10:1 E:T ratio, both donors
Protocol: as §7
Cytotoxicity assay was run using compound cultured cells against K562 tumor cells at 10:1 effector to target ratio (FIG. 5) to evaluate cell functions.

CD34 cells = experiment: CD34 cell expansion at Day 14 of the NK culture; conditions: compound at 10 μM; Day 14 of the culture
Protocol: as §1, §2, §3, §4
as §5, with “35. […]” for “35.”

SMILES	support of NK cell expansion (and differentiation), in words (NK cells [1])	CD56+/CD11a+ subpopulation compared to SR1 (NK cells [2])	killing activities of cultured cells compared to those cultured with SR1 (K562 tumor cells)	level of expansion compared to SR1 at Day 35 (NK cells [1])	CD34 cell expansion at Day 14 (CD34 cells)	expansion, differentiation and cytotoxicity profiles compared to SR1 (NK cells [1])
CCC(C)Nc1cc(-c2cncc(C#N)c2)nc(NCCc2c[nH]c3ccccc23)n1 (centres unmarked) [CRL7, 5-(2-((2-(1H-indol-3-yl)ethyl)amino)-6-(sec-butylamino)pyrimidin-4-yl)nicotinonitrile]	Except for CRL7 and CRL13, the rest of the compounds all resulted in a NK expansion; also recorded: all the compounds except CRL7 and CRL13 supported PNK-007 expansion and differentiation					
CCC(C)Nc1nc(NCCc2c[nH]c3ccccc23)c2ccccc2n1 (centres unmarked) [CRL13, N^4-(2-(1H-indol-3-yl)ethyl)-N^2-(sec-butyl)quinazoline-2,4-diamine]	Except for CRL7 and CRL13, the rest of the compounds all resulted in a NK expansion; also recorded: all the compounds except CRL7 and CRL13 supported PNK-007 expansion and differentiation					
CC(C)c1csc2c(NCCc3c[nH]c4ccccc34)nc(-c3cncc(C#N)c3)nc12 [CRL17, 5-(4-((2-(1H-indol-3-yl)ethyl)amino)-7-isopropylthieno[3,2-d]pyrimidin-2-yl)nicotinonitrile]		increased CD56+/CD11a+ subpopulation	increased killing activities of the cells	slightly less expansion compared to SR1		
CC(C)c1csc2c(NCCc3c[nH]c4ccccc34)nc(-c3cncc(F)c3)nc12 [CRL18, N-(2-(1H-indol-3-yl)ethyl)-2-(5-fluoropyridin-3-yl)-7-isopropylthieno[3,2-d]pyrimidin-4-amine]		increased CD56+/CD11a+ subpopulation	increased killing activities of the cells	slightly less expansion compared to SR1		
Fc1cncc(-c2nc(NCCc3c[nH]c4ccccc34)c3occc3n2)c1 [CRL19, N-(2-(1H-indol-3-yl)ethyl)-2-(5-fluoropyridin-3-yl)furo[3,2-d]pyrimidin-4-amine]	supported cell expansion the best				achieved the highest CD34 cell expansion	very similar expansion, differentiation and cytotoxicity profiles as SR1
Cc1cncc(-c2nc(NCCc3c[nH]c4ccccc34)c3occc3n2)c1 [CRL20, N-(2-(1H-indol-3-yl)ethyl)-2-(5-methylpyridin-3-yl)furo[3,2-d]pyrimidin-4-amine]	supported cell expansion the best				achieved the highest CD34 cell expansion	very similar expansion, differentiation and cytotoxicity profiles as SR1
Cc1cncc(-c2nc(NCCc3c[nH]c4ccccc34)c3scc(C(C)C)c3n2)c1 [CRL21, N-(2-(1H-indol-3-yl)ethyl)-7-isopropyl-2-(5-methylpyridin-3-yl)thieno[3,2-d]pyrimidin-4-amine]		increased CD56+/CD11a+ subpopulation	increased killing activities of the cells	slightly less expansion compared to SR1		
N#Cc1cncc(-c2nc(NCCc3c[nH]c4ccccc34)c3occc3n2)c1 [CRL22, 5-(4-((2-(1H-indol-3-yl)ethyl)amino)furo[3,2-d]pyrimidin-2-yl)nicotinonitrile]	supported cell expansion the best				achieved the highest CD34 cell expansion	very similar expansion, differentiation and cytotoxicity profiles as SR1
